Assay results published in ChEMBL document CHEMBL1629426, “7-Nor-ergosterolide, a pentalactone-containing norsteroid and related steroids from the marine-derived endophytic Aspergillus ochraceus EN-31” (J Nat Prod, 2010).
In brackets after ≈: the same amount, converted by molar mass. Activity calls are given as the source filed them. The rule behind the calls is not given here.

Columns and labels:
SMMC-7721 = assay: Cytotoxicity against human SMMC7721 cells by colorimetric assay; type: functional, cell-based
Escherichia coli = assay: Antimicrobial activity against Escherichia coli by agar diffusion method; type: functional, organism-based
Aspergillus niger = assay: Antimicrobial activity against Aspergillus niger by agar diffusion method; type: functional, organism-based
Staphylococcus aureus = assay: Antimicrobial activity against Staphylococcus aureus by agar diffusion method; type: functional, organism-based
NCI-H460 = assay: Cytotoxicity against human NCI-H460 cells by colorimetric assay; type: functional, cell-based
SW1990 = assay: Cytotoxicity against human SW1990 cells by colorimetric assay; type: functional, cell-based

`C=C(CC[C@@H](C)[C@H]1CC[C@H]2C3=C([C@H](O)C[C@]12C)[C@@]1(C)CC[C@H](O)C[C@@H]1CC3=O)C(C)C` was tested, and the IC50 (SMMC-7721) was 28 µg/mL (≈ 65.3 µM), the Activity (Escherichia coli) was “inactive” and the Activity (Aspergillus niger) was “inactive”. For the same compound, the Activity (Staphylococcus aureus) was “inactive”.

With `C=C(CC[C@@H](C)[C@H]1CC[C@H]2C3=C(CC[C@]12C)[C@@]1(C)CC[C@H](O)C[C@@H]1CC3=O)C(C)C` the Activity (Escherichia coli) was “inactive”, the Activity (Aspergillus niger) was “inactive” and the Activity (Staphylococcus aureus) was “inactive”.

`C=C(CC[C@@H](C)[C@H]1CC[C@H]2C3=C(CC[C@]12C)[C@@]1(C)CC[C@H](O)C[C@@H]1C(=O)O3)C(C)C` was tested, and the IC50 (SMMC-7721) was 7 µg/mL (≈ 16.9 µM), the Activity (Escherichia coli) was “inactive” and the Activity (Aspergillus niger) was “inactive”. For the same compound, the IC50 (NCI-H460) was 5 µg/mL (≈ 12.1 µM), the IC50 (SW1990) was 28 µg/mL (≈ 67.5 µM) and the Activity (Staphylococcus aureus) was “inactive”.
